Laboratory results: publication PMC6151695, “Novel Selective Estrogen Receptor Ligand Conjugates Incorporating Endoxifen-Combretastatin and Cyclofenil-Combretastatin Hybrid Scaffolds: Synthesis and Biochemical Evaluation” (Molecules : A Journal of Synthetic Chemistry and Natural …, 2017)
Like-named read-outs stand apart in the source and are kept apart here.

Experiments:
MCF-7 cells = assay: Flow cytometry (propidium iodide) cell cycle and apoptosis analysis in MCF-7; assay type: cell-based, human; conditions: for apoptosis / G2/M-arrest: MCF-7, 10 µM, 72 h; for apoptosis (in words): MCF-7, 72 h
Description: Flow cytometry with propidium iodide stained cells was carried out to analyse the percentage of cells in each stage of the cell cycle and the number of apoptotic or dead cells. Samples were treated for 72 h at 10 µM. […] […].
(§1) MCF-7 cells were seeded at a density of 5 × 10^4 cells/well in a 12-well plate and treated with the indicated compounds for 72 h. Samples were then centrifuged at 650× g for 5 min and resuspended in 100 µL ice-cold PBS. Ice-cold 70% (v/v) ethanol (1 mL) was then added to fix the samples overnight at 4 °C. Samples were subsequently centrifuged at 800× g for 10 min and resuspended in 200 µL PBS. RNase A (12.5 µL of 10 mg/mL) and propidium iodide (37.5 µL of 1 mg/ mL) were added to samples which were then incubated for 30 min at 37°C. Cell cycle analysis was performed at 488 nm using a FACS Calibur flow cytometer (Becton Dickinson, Franklin Lakes, NJ, USA). The Macintosh-based application CellQuest was then used to analyse the data of 10,000 gated cells once cell debris had been excluded. Data points represent the mean ± S.E.M. of three independent experiments.

human ERα = target: T1, human ERα (Homo sapiens, UniProt P03372); assay: Estrogen receptor fluorescence polarisation competitive binding assay, ERα; conditions: for Selectivity (α/β): ratio of RBA values ERα relative to ERβ; for ERα RBA: relative binding affinity, estradiol (5.7 nM) = 100%
T1 construct: purchased Invitrogen
T1 sequence (P03372 1-595): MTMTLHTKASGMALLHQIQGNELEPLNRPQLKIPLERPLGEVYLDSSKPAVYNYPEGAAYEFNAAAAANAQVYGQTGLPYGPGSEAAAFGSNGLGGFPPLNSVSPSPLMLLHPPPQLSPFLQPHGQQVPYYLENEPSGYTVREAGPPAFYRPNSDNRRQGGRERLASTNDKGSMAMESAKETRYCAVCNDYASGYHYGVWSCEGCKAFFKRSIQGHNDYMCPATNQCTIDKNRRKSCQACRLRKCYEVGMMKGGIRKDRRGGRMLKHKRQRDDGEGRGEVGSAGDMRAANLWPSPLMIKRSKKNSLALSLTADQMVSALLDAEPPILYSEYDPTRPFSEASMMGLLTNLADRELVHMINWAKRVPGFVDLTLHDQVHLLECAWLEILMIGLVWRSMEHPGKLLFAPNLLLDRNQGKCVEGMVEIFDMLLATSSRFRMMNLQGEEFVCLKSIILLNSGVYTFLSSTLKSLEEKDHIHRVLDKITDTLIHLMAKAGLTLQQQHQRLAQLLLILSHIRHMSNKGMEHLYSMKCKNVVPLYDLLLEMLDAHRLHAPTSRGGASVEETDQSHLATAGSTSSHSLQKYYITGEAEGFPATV

human ERβ = target: T2, human ERβ (Homo sapiens, UniProt Q92731); assay: Estrogen receptor fluorescence polarisation competitive binding assay, ERβ
T2 construct: purchased Invitrogen
T2 sequence (Q92731 whole entry): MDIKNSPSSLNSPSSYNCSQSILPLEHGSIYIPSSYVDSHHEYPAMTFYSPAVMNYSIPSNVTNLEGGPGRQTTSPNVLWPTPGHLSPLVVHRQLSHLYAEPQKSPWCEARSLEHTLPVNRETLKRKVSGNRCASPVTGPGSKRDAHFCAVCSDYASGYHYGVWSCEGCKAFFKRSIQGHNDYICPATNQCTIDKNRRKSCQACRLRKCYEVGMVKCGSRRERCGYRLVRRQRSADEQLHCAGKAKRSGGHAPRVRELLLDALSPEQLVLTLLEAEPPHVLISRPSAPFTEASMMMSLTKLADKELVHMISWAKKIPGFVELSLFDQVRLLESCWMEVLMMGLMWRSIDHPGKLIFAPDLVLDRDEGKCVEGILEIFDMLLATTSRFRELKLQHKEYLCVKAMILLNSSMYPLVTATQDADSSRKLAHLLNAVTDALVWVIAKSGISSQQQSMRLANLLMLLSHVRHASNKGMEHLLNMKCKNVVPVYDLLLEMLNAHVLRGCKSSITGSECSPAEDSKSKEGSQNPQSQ

[1] = tested on: MCF-7 human breast cancer cell line; assay: Alamar Blue assay for antiproliferative effects; assay type: cell-based; conditions: Homo sapiens
[2] = tested on: peripheral blood mononuclear cells (PBMCs); assay: Flow cytometry (propidium iodide) in PBMCs of healthy donors; assay type: cell-based, human; conditions: 10 µM, 72 h
Description: Next, the same cohort of compounds was tested on peripheral blood mononuclear cells (PBMCs) isolated from the blood of healthy donors. Cells were treated with 10 µM of each compound for 72 h and subjected to flow cytometry.
as §1
Fresh peripheral blood was collected from healthy donors and diluted 1:3 with RPMI medium and added to half the equivalent volume of Lymphoprep. Samples were centrifuged at 750× g for 30 min to form a Ficoll gradient. The white buffy layer containing the peripheral blood mononuclear cells was removed, diluted to a volume of 50 mL with medium and centrifuged again for 10 min at 650× g. Cells were then seeded at a density of 1 × 10^6 cells in 1 mL of RPMI medium supplemented with 10% FBS, 2 mM L-glutamine and 100 U/mL penicillin and 100 µg/mL streptomycin.

[3] = competitive binding, fluorescence polarisation, read-out: ERα IC50
[4] = competitive binding, fluorescence polarisation, read-out: ERβ IC50
[5] = MCF7, 72 h, MCF-7, 72 h, Alamar Blue, read-out: IC50 (μM), antiproliferative effects
[6] = MCF7, 72 h, read-out: IC50 (μM), antiproliferative effects

| Molecule | IC50 (human ERα; [3]) [nM] | Selectivity (α/β) (human ERα) | ERα RBA (human ERα) [%] | IC50 (human ERβ; [4]) [nM] | IC50 [1, 5] [µM] | increase in binding affinity compared to 4-hydroxytamoxifen (human ERα; in both ER isoforms) | apoptosis (MCF-7 cells) [%] | apoptosis (in words) (MCF-7 cells) | apoptosis / toxic effects in PBMCs (in words) [2] | G2/M-arrest (MCF-7 cells) [%] | IC50 (human ERα) [nM] | selectivity towards ERα over ERβ (human ERα; binding affinity preference) [fold] | IC50 (human ERβ) [nM] | IC50 [1, 6] [µM] | IC50 ([1]; MCF7, read-out: IC50, antiproliferative activity) [µM] |
| --- | --- | --- | --- | --- | --- | --- | --- | --- | --- | --- | --- | --- | --- | --- | --- |
| COc1ccc(/C=C(/C(=O)N(C)CCOc2ccc(C(=C3CCC(C)CC3)c3ccc(O)cc3)cc2)c2cc(OC)c(OC)c(OC)c2)cc1O (stereo not shown) [Compound 13e, (E)-3-(3-Hydroxy-4-methoxyphenyl)-N-(2-(4-((4-hydroxyphenyl)(4-methylcyclohexaneylidene)methyl)-phenoxy)ethyl)-N-methyl-2-(3,4,5-trimethoxyphenyl) acrylamide] |  | 12.3 | 30 |  |  |  | 48 | potently induce apoptosis | lack of toxicity | 18 | 19 | 12 | 229 | 0.182 | 0.187 |
| COc1ccc(/C=C(/C(=O)N(C)CCOc2ccc(C(=C3CCCCCCC3)c3ccc(O)cc3)cc2)c2cc(OC)c(OC)c(OC)c2)cc1O [Compound 13d, (E)-N-(2-(4-(Cyclooctylidene(4-hydroxyphenyl)methyl)phenoxy)ethyl)-3-(3-hydroxy-4-methoxyphenyl)-N-methyl-2-(3,4,5-trimethoxyphenyl)acrylamide] |  |  |  |  |  |  | 36 | potently induce apoptosis | lack of toxicity | 27 |  |  |  | 0.346 |  |
| CNCCOc1ccc(C(=C2CCC(C)CC2)c2ccc(O)cc2)cc1 (stereo not shown) [Compound 11e, 4-((4-(2-(Methylamino)ethoxy)phenyl)(4-methylcyclohexaneylidene)methyl)phenol] | 3160 | 0.02 | 0.180 | 67 | 1.77 |  | 76 | potently induce apoptosis | induced apoptosis in PBMCs |  |  |  |  |  |  |

Further lines, with some results ahead:

| IC50 (human ERα; [3]) [nM] | Selectivity (α/β) (human ERα) | ERα RBA (human ERα) [%] | IC50 (human ERβ; [4]) [nM] | IC50 [1, 5] [µM] | increase in binding affinity compared to 4-hydroxytamoxifen (human ERα; in both ER isoforms) | Molecule | apoptosis (MCF-7 cells) [%] | apoptosis (in words) (MCF-7 cells) | apoptosis / toxic effects in PBMCs (in words) [2] | G2/M-arrest (MCF-7 cells) [%] | IC50 (human ERα) [nM] | selectivity towards ERα over ERβ (human ERα; binding affinity preference) [fold] | IC50 (human ERβ) [nM] | IC50 [1, 6] [µM] | IC50 ([1]; MCF7, read-out: IC50, antiproliferative activity) [µM] |
| --- | --- | --- | --- | --- | --- | --- | --- | --- | --- | --- | --- | --- | --- | --- | --- |
| 1740 | 0.12 | 0.328 | 199 | 1.38 |  | CNCCOc1ccc(C(=C2CCCCCC2)c2ccc(O)cc2)cc1 [Compound 11c, 4-(Cycloheptylidene(4-(2-(methylamino)ethoxy)phenyl)methyl)phenol] | 79.7 ± 5.2 | potently induce apoptosis | induced apoptosis in PBMCs |  |  |  |  |  |  |
| 11.3 | 0.60 | 50.44 | 6.7 |  | approximately 3 fold | N-(2-{4-[1,2-Bis-(4-hydroxyphenyl)but-1-enyl]phenoxy}ethyl)-N-methylsuccinamic acid [Compound 14c] |  |  |  |  |  |  |  |  |  |
| 170 | 0.67 | 3.35 | 112 | 3.23 |  | CNCCOc1ccc(C(=C2CCCCCCC2)c2ccc(O)cc2)cc1 [Compound 11d, 4-(Cyclooctylidene(4-(2-(methylamino)ethoxy)phenyl)methyl)phenol] |  |  |  |  |  |  |  |  |  |
| 182 | 2.44 | 3.13 | 436 | 4.2 |  | CCC(=C(c1ccc(O)cc1)c1ccc(OCCN(C)C(=O)/C(=C/c2cc(OC)c(OC)c(OC)c2)c2ccc(OC)c(O)c2)cc1)c1ccccc1 (mixture of isomers) [Compound 3i, (E/Z)-2-(3-Hydroxy-4-methoxyphenyl)-N-(2-(4-((Z)-1-(4-hydroxyphenyl)-2-phenylbut-1-en-1-yl)phenoxy)-ethyl)-N-methyl-3-(3,4,5-trimethoxyphenyl)acrylamide] |  | potently induce apoptosis | lack of toxicity |  |  |  |  |  |  |
